Test results from patent publication US8263642B2, “Antimicrobial compounds and methods of use thereof” (Vanderbilt University, priority 2008, dated 2012).

Key:
Assay type in all cases: cell-based, Staphylococcus aureus
[1] = tested on: hrtAB-driven expression of the xylE reporter gene; assay: XylE reporter assay (hrtAB promoter-xylE), Newman; details: for XylE (0.05): level of XylE induction at 0.05 uM of the compound; for XylE (0.5): level of XylE induction at 0.5 uM of the compound; for XylE (5.0): level of XylE induction at 5.0 uM of the compound; for XylE (50.0): level of XylE induction at 50.0 uM of the compound
Summary of the method: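 S. aureus carrying hrtAB promoter-xylE fusion in pOS1 grown O/N at 37° C in TSB with chloramphenicol, lysed with lysostaphin. Lysate XylE activity read as 2-hydroxymuconic semialdehyde formation from 0.2 mM pyrocatechol (A375, every minute for 30 minutes), normalised to BCA protein; unit = 1 nmol/min/mg at 30° C.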

response regulator HssR = assay: HssR dependence of XylE inducing activity, Newman; details: whether XylE inducing activity requires HssR
Experimental: With reference to Table 1, “Luminescence” refers to the raw luminescence value obtained in a luminomter. “Control (82.5 nm)” refers to the luminescence value obtained from heme at 82.5 nM as a positive control in the same plate as the experimental. “% lum” is the percentage of luminescence induced by the compound as compared to the heme control in the same plate. […] All of these assays are described in the application. […] “N/T” indicates the test was not performed. […]
S. aureus strains harboring the appropriate reporter construct were inoculated into 500 μl of TSB containing 10 μg/ml chloramphenicol in 1.5 ml tubes. Cultures were grown O/N at 37° C. with shaking. Bacteria were pelleted by centrifugation and spent medium was aspirated. The pellet was washed once with 500 μl of 20 mM potassium phosphate, pH 7.6, and resuspended in 150 μl of 100 mM potassium phosphate buffer, pH 8.0, 10% (v/v) acetone, 25 μg/ml lysostaphin. After 20 minute incubation at 37° C. and 5 minute incubation on ice, samples were centrifuged at 20,000 g for 30 minutes at 4° C. 1-10 μl of supernatant was added to a 96-well plate and 200 μl of 100 mM potassium phosphate, pH 8.0, 0.2 mM pyrocatechol was added to each well. Formation of 2-hydroxymuconic semialdehyde was tracked by measuring the absorbance at 375 nm every minute for 30 minutes on a Varian MP 50 microplate reader. Protein concentration in samples was determined by BCA (Pierce). One unit of specific activity of XylE in a sample is defined as the formation of 1 nmol of 2-hydroxymuconic semialdehyde per minute per milligram of cellular protein at 30° C. (Chien, Y., Manna, A. C., Projan, S. J., and Cheung, A. L. 1999, “SarA, a global regulator of virulence determinants in Staphylococcus aureus, binds to a conserved motif essential for sar-dependent gene regulation. J. Biol. Chem. 274, 37169-37176).

[2] = tested on: S. aureus heme toxicity adaptation; assay: Heme adaptation (resistance to heme-mediated toxicity), Newman; details: whether compound induces heme adaptation
Experimental: With reference to Table 1, “Luminescence” refers to the raw luminescence value obtained in a luminomter. “Control (82.5 nm)” refers to the luminescence value obtained from heme at 82.5 nM as a positive control in the same plate as the experimental. “% lum” is the percentage of luminescence induced by the compound as compared to the heme control in the same plate. […] All of these assays are described in the application. […] “N/T” indicates the test was not performed.
This secondary counter screen can involve testing the compounds of interest for their ability to increase the resistance of wildtype S. aureus to heme-mediated toxicity. Upon sensing heme, HssRS increases the expression of hrtAB, in turn increasing the resistance of S. aureus to heme mediated toxicity. By extension, additional molecules recognized by HssRS leading to hrtAB activation can result in a similar increase in resistance to heme mediated toxicity. For this assay, bacteria can be grown for 15 hours in the presence of compounds of interest (using concentrations determined in the XylE assay), followed by subculture into TSB containing 10 μM heme. Compounds that increase the resistance of S. aureus to heme-mediated toxicity can be selected for further studies. S. aureus strains unable to adapt to heme mediated toxicity (ΔhssR) can be included as a negative control. As a positive control, wildtype S. aureus can be exposed to subinhibitory concentrations of heme prior to subculture. The inclusion of this secondary counterscreen can, in some aspects, rule out compounds that non-specifically increase the expression of the XylE and Lux-based reporter genes.
S. aureus cultures were grown overnight (O/N ˜15 hrs) at 37° C. with shaking at 180 RPM in tryptic soy broth (TSB). Cultures were diluted 1:75 and inoculated into roundbottom 96-well plates in a final volume of 150 μl. Cultures were grown at 37° C. with aeration and bacterial growth was monitored by the increase in absorbance (O.D.600) over time. For the hemin adaptation assays, the medium was supplemented with different hemin concentrations prior to bacterial inoculation. The results represent the mean±S.D. from triplicate determinations and the asterisks denote statistically significant differences as determined by Student's t test (p<0.05).

SMILES	XylE (0.05) [1]	XylE (0.5) [1]	XylE (5.0) [1]	XylE (50.0) [1]	HssR Dep (response regulator HssR)	Heme Adapt [2]
COc1ccc(-c2cc(-c3ccc(C)cc3)[nH]n2)c(O)c1	0.08	0.02	0.07	0.09	+	+
COc1ccc(-c2cc(-c3ccc(OC)cc3O)n[nH]2)cc1	0.06	0.02	0.7	4	+	+
COc1ccc(C(=O)Nc2sc(-c3ccccc3)cc2C(N)=O)cc1	0.07	0.09	4	6	+	+
Fc1ccc(CNC(=S)Nc2ccc(Oc3ccccc3)cc2)cc1	0.06	0.05	0.2	1	+	+
CC(C)(C)c1ccc(O)c(NC(=S)NC(=O)c2cc3ccccc3o2)c1	0.09	0.8	0.9	1	+	+
Oc1c(-c2cc(-c3ccco3)[nH]n2)ccc2ccccc12 [drawing 25]	0.07	0.06	0.2	1000	+	+
CC(NC(=O)C1(c2ccccc2)CCCC1)C1COc2ccccc2O1 (stereo not drawn) [drawing 26]	0.06	0.05	0.7	200	+	+
Cc1ccc(O)c(NC(=O)c2nn3c(c2Br)NC(c2ccco2)CC3C(F)(F)F)c1 (stereo not drawn) [drawing 29]	0.05	0.06	5	3	+	+
Cc1cccc(C(=O)Nc2ccc(-c3nc4ccccc4o3)cc2)c1 [drawing 43]	0.09	0.7	1	0.09	+	+
CC(NC(=O)C1(c2ccccc2)CCCC1)C1COc2ccccc2O1 (stereo not drawn) [drawing 45]	0.04	0.1	0.7	0.05	+	+
O=C(N/N=C/c1ccc(-c2ccc(Br)cc2)o1)C1COc2ccccc2O1 (stereo not drawn) [drawing 48]	0.02	0.08	0.7	0.2	+	+
O=C(N/N=C/c1ccc(-c2cccc(C(F)(F)F)c2)o1)C1COc2ccccc2O1 (stereo not drawn) [drawing 49]	0.07	0	0.6	0.09	+	+
COc1ccc(Br)cc1C(=O)NC(=S)Nc1cc(C)c(C)cc1O [drawing 63]	0.08	0.8	0.9	2	+	+
Oc1c(-c2cc(-c3ccco3)[nH]n2)ccc2ccccc12 [drawing 65]	0.4	0.07	12	5	+	+
CCCN1C(=O)/C(=C2/C(=O)N(CC(=O)Nc3ccc(Cl)cc3)c3ccccc32)SC1=S [drawing 67]	0.02	0.04	0.05	1	+	+
Cc1ccc(NS(=O)(=O)c2ccc3c(c2)Cc2cc(S(=O)(=O)Nc4ccc(C)cc4)ccc2-3)cc1 [drawing 74]	1	1	15	14	+	+
COc1ccccc1NC1=C/C(=N\S(=O)(=O)c2ccc(Br)cc2)c2ccccc2C1=O [drawing 81]	1	1	1	1	+	+
